Measured values taken from patent publication US10517889B2, “Modulators of SMAD7 expression” (Ionis Pharmaceuticals, Inc., priority 2017, dated 2019).
Where “and” joins values, the source holds several entries; their conditions need not be identical. Equal values may be shown once. Strand notation (5' to 3'): a small letter for the sugar, then the base; units joined by * are phosphorothioate-linked, units joined directly phosphodiester-linked; [ ] holds rarer units or linkages, { } end groups; capitals alone tell only the bases. k = constrained ethyl (cEt); [5mC] = 5-methylcytosine; d = 2'-deoxy (DNA)

Key:
[1] = Tissue and organ histopathology after oral gavage in CD-1 mice (Example 7); format: in vivo; conditions: daily oral gavage 500 mg/kg for one month, in words
Procedure: Groups of 7-8 week old male CD-1 mice were given an oral gavage dose once daily for 4 weeks of 500 mg/kg of Ionis SMAD7 oligonucleotides. Each group contained 8 mice. One group of male CD-1 mice was administered saline by oral gavage daily.
Histopathology evaluations were performed on the mice treated with Ionis oligonucleotides to evaluate any tissue damage in the liver (with gallbladder), kidneys, heart, spleen, thymus, mesenteric lymph nodes, and different parts of the GI tract, including duodenum, ileum, and colon (proximal and distal). Tissues were collected and fixed in 10% neutral-buffered formalin, embedded in paraffin, sectioned, and stained with hematoxylin and eosin. All the tissues were histologically unremarkable in all mice.

[2] = test system: mouse Smad7 mRNA; test: Murine Smad7 mRNA expression after subcutaneous administration in BALB/c mice (Example 10); format: in vivo; conditions: 50 mg/kg subcutaneous once a week for 4 weeks, 24 hours after last dose
Procedure: The objective of this study was to evaluate the efficacy of Ionis SMAD7 antisense oligonucleotides compared to ION 736697/Mongersen in BALB/c mice following 4 weeks of treatment. Both ION 830025 and ION 798781 are cross-reactive with mouse Smad7 mRNA.
Groups of BALB/c mice were subcutaneously administered 50 mg/kg of Ionis SMAD7 oligonucleotides once a week for 4 weeks. Each group contained 4 mice. One group of mice was administered PBS once a week for 4 weeks. […]

[3] = test system: human SMAD7 mRNA; test: Dose-dependent inhibition of human SMAD7 mRNA expression in A431 cells, oligonucleotide added without transfection (Example 5, Study 1); format: cell-based; conditions: SMAD7 mRNA, in words
Procedure: The newly designed compounds disclosed herein are cEt-modified antisense oligonucleotides. […] The studies described below show a comparison of select cEt-modified gapmers and ION0736697/Mongersen.
A431 cells were plated in collagen I-coated 96-well plates in DMEM with […]. Immediately after plating, 0.08 μM, 0.25 μM, 0.74 μM, 2.22 μM, 6.67 μM, or 20.00 μM concentrations of antisense oligonucleotide were added. The plates were shaken briefly before incubating at 37° C. and 10% CO2. After a treatment period of approximately 48 hours, the cells were washed and lyzed and RNA on 384-well Pall plates with DNase I treatment. SMAD7 mRNA levels were measured by quantitative real-time PCR. Primer probe set RTS5062 was used to measure human SMAD7 mRNA levels. SMAD7 mRNA levels were adjusted according to total RNA content, as measured by RIBOGREEN®. Results are presented as percent inhibition of SMAD7 mRNA expression, relative to untreated control cells.
All Ionis oligonucleotides had greater potency than ION 736697/Mongersen.

[4] = test system: murine Smad7 mRNA; test: Dose-dependent inhibition of murine Smad7 mRNA in bEND cells, electroporation (Example 5, Study 2); format: cell-based, mouse; conditions: in words
Procedure: Many of the Ionis designed oligonucleotides as well as ION 736697/Mongersen are complementary to mouse Smad7 mRNA. […] After a treatment period of approximately 16 hours, the cells were washed and lyzed and RNA on 384-well Pall plates with DNase I treatment. Smad7 mRNA levels were measured by quantitative real-time PCR. Primer probe set RTS1114 (forward sequence […], designated herein as SEQ ID NO: 8; reverse sequence […], designated herein as SEQ ID NO: 9; probe sequence […], designated herein as SEQ ID NO: 10) was used to measure murine Smad7 mRNA levels. Smad7 mRNA levels were adjusted according to total RNA content, as measured by RIBOGREEN®. Results are presented as percent inhibition of Smad7 mRNA expression, relative to untreated control cells.
Many of the Ionis oligonucleotides had greater potency than ION 736697/Mongersen.

[5] = Pharmacokinetics: oligonucleotide concentration in tissues after oral gavage in beagle dogs (Example 12); format: in vivo
Procedure: There were 4 animals per group.
Canine tissue exposure following oral administration of the Ionis SMAD7 oligonucleotides was measured in various organs and intestinal tissues.
Plasma concentrations of Ionis oligonucleotides were also measured on Day 28 at various time points.

[6] = Organ weights after oral gavage in beagle dogs (Example 12); conditions: 200 mg by oral gavage for 4 weeks, day 30, in words
Procedure: (§2) Groups of 24-25 week old male beagle dogs were administered 200 mg Ionis human SMAD7 oligonucleotide by oral gavage once a week for 4 weeks. There were 4 animals per group. A control group of dogs received oral administration of distilled water. Dogs were sacrificed on day 30 approximately 48 hours after the final dose and organs and plasma were harvested for further analysis.

[7] = Plasma chemistry markers after oral gavage in beagle dogs (Example 12); conditions: 200 mg by oral gavage for 4 weeks, day 30, in words
Procedure: The study was conducted to evaluate the tolerability and pharmacodynamics of select human SMAD7 antisense oligonucleotides in beagle dogs following 4 weeks of treatment. The dogs were administered oligonucleotides by oral gavage.
as §2
To evaluate the effect of Ionis SMAD7 oligonucleotides on liver and kidney function, approximately 1.5 mL of blood samples were collected and put into tubes without anticoagulant for serum separation. The tubes were kept at room temperature for a minimum of 90 min and then centrifuged (approximately 3,000 rpm for 10 min) to obtain serum. Plasma levels of transaminases, albumin, bilirubin, and BUN were measured using an automated clinical chemistry analyzer (Toshiba 200FR Neo chemistry analyzer, Toshiba Co., Japan).

[8] = Plasma chemistry markers after subcutaneous administration in beagle dogs (Example 8); conditions: 30 mg/kg subcutaneously, day 31, in words
Procedure: Groups of 24-25 week old male beagle dogs were injected subcutaneously with 30 mg/kg ION Ionis oligonucleotide. There were 4 animals per group. Dogs were injected every two days for the first week (day 1, 3, and 5) and once weekly thereafter (days 8, 15, 22, and 29). A control group of dogs received subcutaneous injections of PBS. Dogs were sacrificed on day 31 approximately 48 hours after the final dose and organs and plasma were harvested for further analysis.
To evaluate the effect of Ionis SMAD7 oligonucleotides on liver and kidney function, plasma levels of transaminases, albumin, creatine and BUN were measured using an automated clinical chemistry analyzer (Toshiba 200FR Neo chemistry analyzer, Toshiba Co., Japan).

[9] = test system: human SMAD7 mRNA; test: Antisense inhibition of human SMAD7 mRNA expression in Hep3B cells by 3-10-3 cEt gapmers, 10,000 nM, electroporation (Example 2); format: cell-based; conditions: approximately 24 hours, primer probe set RTS5062, relative to untreated control cells
Procedure, shortened: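 SMAD7 mRNA was measured by real-time PCR (RTS5062) with RiboGreen total-RNA normalization, about 24 h after 10,000 nM gapmer was delivered by electroporation into Hep3B cells at 20,000 per well. Gapmers were 16-mer 3-10-3 cEt, fully phosphorothioate; values are % inhibition versus untreated controls.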

[10] = test system: human SMAD7 mRNA; test: Dose-dependent inhibition of human SMAD7 mRNA expression in Hep3B cells (Example 3, Study 1 and 2); format: cell-based; conditions: electroporation; for % inhibition of SMAD7 mRNA expression: approximately 16 hours
Procedure, shortened: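 Hep3B cells, 20,000 per well, electroporated with antisense oligonucleotide at 0.31, 1.25, 5.00 or 20.00 μM (first series) or 0.74, 2.22, 6.67 or 20.00 μM (second series). After ~16 h, SMAD7 mRNA measured by RT-qPCR (RTS5062), normalised to RIBOGREEN total RNA. Percent inhibition vs untreated cells; IC50 derived.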

[11] = Plasma chemistry markers after subcutaneous administration in CD-1 mice (Example 6); format: in vivo; conditions: CD-1 mice plasma at day 46; 50 mg/kg subcutaneously twice a week for 7 weeks
Procedure: CD-1® mice (Charles River, Mass.) are a multipurpose mice model, frequently utilized for safety and efficacy testing. The mice were treated with Ionis human SMAD7 antisense oligonucleotides selected from studies described above and evaluated.
Groups of 8-9 week old male CD-1 mice were injected subcutaneously twice a week for 7 weeks with 50 mg/kg of Ionis oligonucleotides (100 mg/kg/week dose). Each group contained 4 mice. One group of male CD-1 mice was injected subcutaneously twice a week for 7 weeks with PBS. […]

[12] = Organ weights after subcutaneous administration in CD-1 mice (Example 6); format: in vivo; conditions: end of study, 50 mg/kg subcutaneously twice a week for 7 weeks
Procedure: (§1) Groups of 8-9 week old male CD-1 mice were injected subcutaneously twice a week for 7 weeks with 50 mg/kg of Ionis oligonucleotides (100 mg/kg/week dose). Each group contained 4 mice. One group of male CD-1 mice was injected subcutaneously twice a week for 7 weeks with PBS. Plasma was collected for analysis on day 28.
Ionis SMAD7 oligonucleotides that caused any changes in organ weights outside the expected range for antisense oligonucleotides were excluded from further studies.

[13] = Hematology assays after subcutaneous administration in CD-1 mice (Example 6); format: in vivo; design: RBC / Eosinophils / Monocytes: unit not given here; conditions: 50 mg/kg subcutaneous twice weekly for 7 weeks
Procedure: as §1
Blood obtained from all mouse groups was measured by an ADVIA2120i hematology analyzer (Siemens, USA) for measurements of the various blood cells, as well as other hematology markers.

[14] = test system: mouse Smad7 mRNA; test: Pharmacology: mouse Smad7 mRNA expression in liver, kidney, duodenum, ileum and colon after subcutaneous administration in CD-1 mice (Example 6); format: in vivo; conditions: 50 mg/kg subcutaneous twice weekly for 7 weeks, normalized to GAPDH
Procedure: as §1
The pharmacological activity of the Ionis oligonucleotides in mice was assessed by measuring mouse Smad7 mRNA expression in liver, kidney, duodenum, ileum, and colon at necropsy.
Tissue samples from all mice were analyzed for Smad7 mRNA expression using the primer probe set HTS7555 (forward sequence […], designated SEQ ID NO: 2737; reverse sequence […], designated SEQ ID NO: 2738; probe sequence […], designated SEQ ID NO: 2739), which was normalized to mRNA levels of the housekeeping gene, GAPDH. One-way ANOVA with Dunnet's comparison test was used for statistical analysis.

## ION 790615: 3-10-3 (S)-cEt gapmer targeting human SMAD7; top lead compound (k[5mC]*k[5mC]*kA*dA*dT*dG*dA*dG*dA*dA*dT*dG*d[5mC]*kT*kT*k[5mC])
[1]
  Histopathology: oligonucleotide-related tissue alterations: not associated with any antisense oligonucleotide-related tissue alterations
[2]
  Mouse Smad7 mRNA expression (% inhibition), Colon: 71 % inhibition
  Mouse Smad7 mRNA expression (% inhibition), Duodenum: 39 % inhibition
  Mouse Smad7 mRNA expression (% inhibition), Ileum: 41 % inhibition
  Mouse Smad7 mRNA expression (% inhibition), Kidney: 28 % inhibition
  Mouse Smad7 mRNA expression (% inhibition), Liver: 47 % inhibition

## ION 798781 (CGTAAGATTCACAGCA; 3-10-3 cEt gapmer, further chemistry not given here)
[3]
  Potency/efficacy compared with ION 736697/Mongersen: more efficacious than ION 736697/Mongersen
[4]
  Potency compared with ION 736697/Mongersen: more potent than ION 736697/Mongersen
[1]
  Histopathology: oligonucleotide-related tissue alterations: not associated with any antisense oligonucleotide-related tissue alterations
[2]
  Mouse Smad7 mRNA expression (% inhibition), Colon: 41 % inhibition
  Mouse Smad7 mRNA expression (% inhibition), Duodenum: 27 % inhibition
  Mouse Smad7 mRNA expression (% inhibition), Ileum: 22 % inhibition
  Mouse Smad7 mRNA expression (% inhibition), Kidney: 11 % inhibition
  Mouse Smad7 mRNA expression (% inhibition), Liver: 36 % inhibition
[5]; 200 mg by oral gavage for 4 weeks, in words
  Tissue accumulation of oligonucleotide: higher accumulation in the liver and kidneys
[5]; 200 mg oral gavage for 4 weeks, duodenum
  Oligonucleotide concentration in tissues, Duodenum: 0.6 µg/g
[5]; 200 mg oral gavage for 4 weeks, ileum
  Oligonucleotide concentration in tissues, Ileum: 0.5 µg/g
[5]; 200 mg oral gavage for 4 weeks, kidney
  Oligonucleotide concentration in tissues, Kidney: 108.1 µg/g
[5]; 200 mg oral gavage for 4 weeks, liver
  Oligonucleotide concentration in tissues, Liver: 12.9 µg/g
[5]; 200 mg oral gavage for 4 weeks, proximal colon
  Oligonucleotide concentration in tissues, Proximal colon: 0.1 µg/g
[6]
  Tolerability (organ weights): very well tolerated
[7]
  Tolerability (plasma chemistry markers): very well tolerated
[8]
  Tolerability (plasma chemistry markers): well tolerated

## 799144 (antisense kT*kT*kG*dG*dG*dT*dT*dA*dT*dG*dA*d[5mC]*dG*kG*kA*k[5mC]) [compound 799144]
[9]; Hep3B cells, electroporation with 10,000 nM antisense oligonucleotide
  % inhibition of SMAD7 mRNA expression: 72%
[9]; SMAD7 mRNA, Hep3B cells, 10,000 nM antisense oligonucleotide, electroporation
  % Inhibition: 72%
[10]; 740 nM, Study 2, relative to untreated control cells
  % inhibition of SMAD7 mRNA expression: 32% and 40%
[10]; 2220 nM, Study 2
  % inhibition of SMAD7 mRNA expression: 50% and 57%
[10]; 6670.0 nM, Study 2
  % inhibition of SMAD7 mRNA expression: 67% and 60%
[10]; 20000.0 nM, Study 2
  % inhibition of SMAD7 mRNA expression: 83% and 87%
[10]; Study 2 (740-20000 nM)
  IC50: 2000 nM and 1000 nM
[11]
  ALT: 253 IU/L
  AST: 170 IU/L
  Albumin: 2.7 g/dL
  BUN: 21 mg/dL
[12]
  Organ weights, Kidneys: 0.6 g
  Organ weights, Liver: 2.3 g
  Organ weights, Spleen: 0.1 g
[13]
  Eosinophils: 2.9
  Hematocrit: 43.1%
  Hemoglobin: 14.3 g/dL
  Lymphocytes: 80.7%
  MCH: 15.2 pg
  MCHC: 33.2 g/dL
  MCV: 45.8 fL
  Monocytes: 4.9
  Neutrophils: 11.4%
  RBC: 9.5
  Reticulocytes: 3.3%
  WBC: 6.2 10^3/μL
  platelets: 614.0 10^3/μL
[13]; n.d. = below detection levels
  Basophils: 0.1 10^3/μL
[14]; kidney
  % inhibition of Smad7 mRNA expression (compared to control), Kidney: 3%
[14]; liver
  % inhibition of Smad7 mRNA expression (compared to control), Liver: 0%
